Key:
proteasome CT-L activity = experiment: Binding kinetics: CT-L activity in RPMI8226 cells at different time points after 1-h pulse treatment; type: cell-based, human; details: CT-L activity in RPMI8226 cells after 1-h pulse treatment
20S proteasome T-L, β2 = target: T1, 20S proteasome T-L, β2 (Homo sapiens, UniProt Q99436); experiment: In vitro 20S proteasome inhibition in RPMI8226 cell lysate, Z-Ala-Arg-Arg-AMC substrate; type: biochemical; details: RPMI8226 cellular lysates, 1 h at 37 °C
T1 sequence (Q99436 44-277): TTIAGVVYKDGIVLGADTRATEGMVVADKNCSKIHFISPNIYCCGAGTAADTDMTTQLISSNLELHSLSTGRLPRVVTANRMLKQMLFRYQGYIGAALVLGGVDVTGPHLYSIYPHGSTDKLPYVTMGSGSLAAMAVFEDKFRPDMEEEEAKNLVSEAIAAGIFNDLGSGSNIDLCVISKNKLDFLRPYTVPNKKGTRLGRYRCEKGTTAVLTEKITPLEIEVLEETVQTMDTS
Description: (§1) Pomalidomide was purchased from Tokyo Chemical Industry.
(§2) RPMI8226 cell lysate was used for the in vitro proteasome inhibition assay. Cells were washed with PBS and resuspended in 20 mM Tris–HCl, pH 7.5. Then, cells were lysed on ice by dounce homogenization and the supernatants were collected by centrifugation. The assay was conducted in 96-well plates by incubating 2 μg of lysates with serial dilutions of a test compound and 20 μM of substrate at 37 °C for 1 h. After incubation, production of hydrolyzed AMC groups was measured using a FlexStation II Fluorometer (Molecular Devices) or using a Spectra MAX Gemini Fluorometer (Molecular Devices) with an excitation filter of 380 nm and an emission filter of 460 nm.

RPMI8226 xenografts = experiment: Anti-tumor activity of repeat dosing in RPMI8226 xenograft model; type: in vivo; details: 5 mg/kg oral, the day after the first treatment, NOD.SCID mice
Description: (§3) In vivo efficacy studies were performed in female BALB/c nude mice (8 weeks old) purchased from ORIENT Bio or female NOD.SCID mice (11–13 weeks old) purchased from HFK Bioscience. The animals were housed and maintained in a controlled environment including a 12 h light and 12 h dark cycle with automatic timers and received food and water ad libitum. All experiments were done under protocols approved by the Institutional Animal Care and Use Committee (IACUC). Moribund animals were sacrificed when necessary and animal carcasses were disposed of according to IACUC guidelines.
(§4) 1 × 10^7 MM.1S tumor cells in 0.1 ml of Dulbecco’s Phosphate-Buffered Saline (1:1 matrigel) were implanted subcutaneously into the right flank of female athymic nude mice. Tumor growth was monitored with calipers and mice were divided into homogeneous cohorts according to their initial tumor volume. […] The compounds were formulated in 0.5 % methyl cellulose and administered at the indicated doses and regimens by oral gavage at a dose volume of 10 mL/kg. […] The mean, standard deviation (SD), and standard error of the mean (SEM) were calculated for each experimental group, and statistical analyses were performed using standard two tailed Student’s t-test (significance defined as P ≤ 0.05).

[1] = Cytotoxicity in normal PBMC from healthy donors (CellTiter-Glo); type: cell-based; details: human, 10,000 nM, read-out: Viability of normal PBMC at highest concentration tested
Description: (§5) Primary MM cells were retrieved from bone marrow of patients and were enriched by Ficoll density centrifugation to a purity of >90 %, as necessary. Purity was assessed by cytomorphology on stained samples. CD138^+ cells were collected using magnetic beads (Miltenyi Biotec) and plated at a density of 8 × 10^4 cells per well onto 96-well plates in RPMI-1640 (WELGENE) containing 10 % FBS (WELGENE), 1 % penicillin-streptomycin-amphotericin B (Gibco), and 2 mM L-glutamine. Cells were then treated with a serial dilution of compound in medium containing a final concentration of 0.2 % DMSO. Cultures were incubated for 48 h and cells were then assayed for viability using the CellTiter-Glo Luminescent Cell Viability Assay kit (Promega).
Peripheral blood mononuclear cells (PBMCs) isolated from the heparinized blood samples of normal healthy donors were also plated and processed as described above.

MM.1S xenografts [2] = experiment: Anti-tumor activity of repeat oral dosing in MM.1S xenograft model; type: in vivo, mice; details: 5 mg/kg oral twice a week
Description: as §3
as §4, with “mL/kg. For the RPMI8226 model, a total of 1 × 10^7 cells in 0.2 ml of PBS (1:1 matrigel) were implanted subcutaneously into the hind flank of female NOD.SCID mice. Whole blood was collected by cardiac puncture into tubes containing sodium heparin and cells were harvested by centrifugation. Blood cell pellets and tumor tissues were homogenized in lysis buffer (50 mM Tris–HCl, pH 8.0, 5 mM EDTA, 150 mM NaCl, 0.5 % Nonidet P-40, 0.5 mM phenylmethylsulfonyl fluoride, and 0.5 mM dithiothreitol) for 30 min at 4 °C. The lysates were centrifuged at 14,000 × g for 30 min, and the supernatants were collected as whole blood cell extracts and tumor cell extracts, respectively, for pharmacodynamic analysis.” for “mL/kg.”

[3] = tested on: CD138+ cells from bone marrow of MM patients; experiment: Viability of primary myeloma cells from MM patients (CellTiter-Glo); type: cell-based, human; details: patient 14 sample (bortezomib- and ixazomib-refractory), 48 h, % over DMSO control
Description: as §5

20S proteasome C-L, β1 = target: T2, 20S proteasome C-L, β1 (Homo sapiens, UniProt P28072+Q99436); experiment: In vitro 20S proteasome inhibition in RPMI8226 cell lysate, Z-Leu-Leu-Glu-AMC substrate; type: biochemical; details: RPMI8226 cellular lysates, 1 h at 37 °C
T2 construct: endogenous in cells; host or cells: RPMI8226 (human multiple myeloma)
Description: as §1, §2

MM.1S xenografts [4] = experiment: MM.1S xenograft study of LC53-0151 with or without pomalidomide; type: in vivo, mice; details: pomalidomide 2.5 mg/kg oral 5 days per week, 3 weeks; not statistically significant
Description: as §3
as §4, with “0.05). […]” for “0.05).”

## CC(C)C[C@H](NC(=O)[C@H](Cc1ccccc1)NC(=O)c1cnccn1)B(O)O [Bortezomib]
Proteasome CT-L activity
  Binding kinetics: reversible

## CC(C)C[C@H](NC(=O)[C@H](CCc1ccccc1)NC(=O)CN1CCOCC1)C(=O)N[C@@H](Cc1ccccc1)C(=O)N[C@@H](CC(C)C)C(=O)[C@@]1(C)CO1 [Carfilzomib]
Proteasome CT-L activity
  Binding kinetics: irreversible

## CC(C)C[C@H](NC(=O)CNC(=O)c1cc(Cl)ccc1Cl)B(O)O [Ixazomib]
20S proteasome T-L, β2
  IC50: > 10000 nM
RPMI8226 xenografts
  Mortality in efficacy model: all 8 mice died or were euthanized
[1]
  viability at 48 h, 10000 nM: > 50%
MM.1S xenografts [2]; day 8
  Tumor volume, % of start tumor volume (maximum regression): 36%
MM.1S xenografts [2]; day 15
  Tumor growth inhibition compared to vehicle control: 72%
  Tumor volume, % of start tumor volume: 58%
Proteasome CT-L activity
  Binding kinetics: reversible
[3]
  Viability at 12.5 nM: did not show any effect on viability
20S proteasome C-L, β1
  IC50: 6 to 7 nM

## Nc1cccc2c1C(=O)N(C1CCC(=O)NC1=O)C2=O (stereo not drawn) [pomalidomide, Pomalidomide]
MM.1S xenografts [4]
  Reduction of tumor volume compared to vehicle-treated mice: 10%

Source: paper PMC4806471, “Oral proteasome inhibitor with strong preclinical efficacy in myeloma models” (BMC Cancer, 2016)
